Data from patent US9259396B2, “Method of preparing soy isoflavone nanoparticles by precipitation with compressed antisolvent (PCA) using a supercritical fluid” (Nano and Advanced Materials Institute Limited, priority 2012, dated 2016).

Assays:
[1] = Dissolution rate study in a dissolution medium; type: physicochemical; conditions: over a period of 20 minutes
Protocol: FIG. 9 is dissolution profiles of raw genistein versus PCA processed genistein under different pressures of 70 bar (Run 6) and 100 bar (Run 4).
46% weight percentage of the processed genistein from Run 4 (100 bar) is dissolved in a dissolution medium while only 23% of the unprocessed genistein is dissolved over a period of 20 minutes. This 2-fold increase in dissolution rate can be credited to the reduction in particle size resulting in an increase in total surface area. However, the dissolution rate for particles which are obtained at 70 bar with smaller particles (Run 6) is slower than that of particles obtained at 100 bar (Run 4).

[2] = Saturation concentration of genistein in acetone; type: physicochemical; conditions: room temperature and atmospheric pressure
Protocol: As used herein, the concentration of genistein means the concentration of the genistein dissolved in an organic solvent such as acetone at room temperature and atmospheric pressure. The saturation point of genistein concentration dissolved in acetone at room temperature and atmospheric pressure is 4 mg/mL.

weight percentage dissolved in a dissolution medium [1]: 23%
saturation point of genistein concentration dissolved in acetone [2]: 4 mg/mL
Structure (SMILES): O=c1c(-c2ccc(O)cc2)coc2cc(O)cc(O)c12 [unprocessed genistein, genistein]
